No end group written: not given here. *: point of attachment. NHNH2 = NN*
Tests used:
lower back (lumbar) pain = assay: Example 85: analgesic effect on lower back pain, topical; type: in vivo, human
Procedure: A subject had lower back (lumbar) pain associated with sitting in a crouched position at a low work table for about 3 hours. Upon their sitting up straight, the pain became more pronounced and persisted as they walked around for 15-20 minutes.

[1] = tested on: psoriatic arthritis of finger joints; assay: Example 84: analgesic effect on pain from psoriatic arthritis, topical; type: in vivo, human; conditions: 0.8% (w/v) in WEP442, topical
From the text: A subject […], had extensive plaque psoriasis and painful arthritis of the interphalangeal joints of both index fingers, left thumb and left 5th finger, which compromised their work performance as an esthetician. The subject topically applied a solution composition containing 0.8% (w/v) of N-Ac-Tyr-Pro-Phe-Phe-NHCH3 (SEQ ID NO: 24) in WEP442 to their painful fingers.

[2] = tested on: osteoarthritis of the fingers and wrists; assay: Example 83: analgesic effect on osteoarthritic pain, topical; type: in vivo, human; conditions: 0.8% (w/v) in WEP442, topical
Procedure: A subject had osteoarthritis of the fingers and wrists for about 10 years, with substantial worsening over the past several months. Symptoms included painful finger joints and wrists. The pain was much worsened by flexion, so that making a first was too painful to try. Moreover, complete flexion had not been possible because of actual physical limitations. Anatomical signs of their disorder, e.g., enlarged finger joints, were conspicuous in their case. After 36 hours of no topical or systemic use of any analgesic agent, pain in the fingers and wrists was again present and substantial, so much so that they were unable to slice vegetables with a knife.

[3] = tested on: trapezius muscle strain pain; assay: Example 81: analgesic effect on pain from trapezius muscle strain, topical; type: in vivo, human; conditions: 0.7% (w/v) in propylene glycol: triethyl citrate : water (4:4:2)
From the text: A subject with persistent pain localized to a site medial to the upper right scapula (shoulder blade) topically applied to that site a composition containing 0.7% (w/v) of N-Ac-Tyr-Pro-Phe-Phe-NHCH3(SEQ ID NO: 24) in propylene glycol: triethyl citrate : water (4:4:2 ratio).

post-sunburn pain = assay: Example 86: analgesic effect on sunburn pain, topical; type: in vivo, human
Procedure: A subject, experienced post-sunburn pain at the frontal hairline of the scalp, an area not earlier covered by sunscreen lotion at time of sun exposure several days earlier. They vigorously rubbed the area later to remove lingering skin scales, which caused irritation and pain. […] Relief lasted for 4 hours. […] The condition was then resolved with the use of a hydrating skin cream.

[4] = tested on: psoriatic arthritis pain, fingers and wrists; assay: Example 48: comparative analgesic efficacy, psoriatic arthritis pain of fingers and wrists, topical; type: in vivo, human; conditions: 1% (w/v) in WEP442, topical
From the text: […] Treatment of the subject over the years included methotrexate and other antimetabolites, and in recent years drugs known as biologic medications. While these agents have provided intervals of relief, none has provided a lasting benefit. Over the past decade, painful arthritis developed in both wrists and in numerous joints of the fingers. Four related tetrapeptide derivatives, 1% (w/v) solution compositions in vehicle WEP442, one at a time, were topically applied to the fingers and wrists of both hands. […] Efficacy was rated by the subject as 4+. • (B) N-Ac-Tyr-Pro-Phe-Phe-NHNH2 (SEQ ID NO: 31) provided slow relief of pain, i.e. within about 10 minutes. […] Analgesic efficacy was judged by the subject to be 0 to 1+.

sinus headaches = assay: Example 55: analgesic effect on headache due to sinusitis, topical; type: in vivo, human; conditions: 1% (w/v) in WEP442, topical
From the text: A subject, suffered from chronic recurrent “sinus headaches.” At the time of one such headache, they topically applied to the entire forehead and, with their eyes closed, to the sites overlying the frontal and maxillary sinuses a composition containing 1% (w/v) of N-Ac-Tyr-Pro-Phe-Phe-NHNH2 (SEQ ID NO: 31) in WEP442.

hangover headache = assay: Example 54: analgesic effect on hangover headache, topical; type: in vivo, human; conditions: 1% (w/v) in WEP442, topical
From the text: A subject with a “splitting” headache the morning after heavy drinking at a party the night before, topically applied to the entire head and neck a composition containing 1% (w/v) of N-Ac-Tyr-Pro-Phe-Phe-NHNH2 (SEQ ID NO: 31) in WEP442. […] They then drove their car approximately 90 miles to their residence.

migraine = assay: Example 80: analgesic effect on pain and nausea from migraine headache, topical; type: in vivo, human; conditions: 0.5% (w/v) in WEP442, topical at onset of symptoms
From the text: A subject with a history of recurrent attacks of migraine, was provided a solution composition containing 0.5% (w/v) of N-Pg-Tyr-Pro-Phe-Phe-NH2 (SEQ ID NO: 44) in WEP442 and a solution composition containing 0.5% (w/v) of N-Ac-Tyr-Pro-Phe-Phe-NHNH2 (SEQ ID NO: 31) in WEP442. […] Sensations of nausea that might have lingered went away after several minutes following a second topical application.

thermal burn of finger = assay: Example 56: analgesic effect on finger pain caused by thermal burn, topical; type: in vivo, human; conditions: 1% (w/v) in WEP442, topical
From the text: A subject, suffered a thermal burn of their right fourth finger from touching a hot kitchen plate. […] Six days later, the burned site appeared normal.

[5] = tested on: arthritic pain of wrists and fingers (psoriasis); assay: Example 61: comparative analgesic efficacy in psoriatic arthritis of wrists and fingers, topical; type: in vivo, human; conditions: 1% (w/v) in WEP442, topical
From the text: A subject with severe generalized psoriasis compared the topical efficacy of solution compositions of nine (9) tetrapeptide derivatives on arthritic pain of their wrists and fingers. All of the solution compositions contained 1% (w/v) of tetrapeptide derivative in WEP442.

mu receptors = mu receptors (Mus musculus, UniProt P42866); conditions: mouse brain; cited from earlier work
[6] = tested on: pain caused by needling or pinching; assay: Example 91: experimentally induced skin pain, intradermal and subcutaneous injection; type: in vivo, human; conditions: 0.1% sterile aqueous solution pH 6.2, intradermally 0.1 ml and subcutaneously 0.2 ml
[7] = tested on: rat rostral ventrolateral medulla neurons; conditions: in vitro; cited from earlier work
[8] = tested on: extruded intervertebral cervical disc, pain and paresthesia; assay: Example 40: painful extruded intervertebral cervical disc, topical; type: in vivo, human
From the text: Previous therapy undergone by the subject included epidural injections of corticosteroids.

[9] = tested on: extruded intervertebral cervical disc, pain and paresthesia; assay: Example 40: painful extruded intervertebral cervical disc, subcutaneous injection; type: in vivo, human
From the text: Previous therapy undergone by the subject included epidural injections of corticosteroids. Within the past several months, the pain had intensified, along with a substantial degree of paresthesia and numbness of the fingers of both hands. […] Relief of pain and paresthesia lasted for 1-2 days. Thereafter, the pain and paresthesia returned.
About 1 week later, pain and paresthesia were negligible, but returned within 2-3 weeks. Such injections were repeated 3 times at approximately monthly intervals with the same beneficial results. However, pain and paresthesia were not cured, and recurring within 2-3 weeks.

[10] = rats injected at 5-10 μg; cited from earlier work
[11] = tested on: sore site on the left lower gum; assay: Example 38: analgesic effect on gum pain due to pressure from denture; type: in vivo, human
Procedure: […]. […] The dentures were removed and re-inserted 15 hours later. Within about 1 hour, soreness of the same area began to return and application of the above solution composition was repeated in the same way as the day before. All soreness again was alleviated within 5-10 seconds. The relief lasted again for about 7 hours.

adjuvant arthritis = conditions: intraperitoneal injection; cited from earlier work
[12] = rats injected with 18 pmol; cited from earlier work
[13] = 0.5% (w/v) in WEP442, gauze under plastic film

Chain of mu receptors (P42866 whole entry): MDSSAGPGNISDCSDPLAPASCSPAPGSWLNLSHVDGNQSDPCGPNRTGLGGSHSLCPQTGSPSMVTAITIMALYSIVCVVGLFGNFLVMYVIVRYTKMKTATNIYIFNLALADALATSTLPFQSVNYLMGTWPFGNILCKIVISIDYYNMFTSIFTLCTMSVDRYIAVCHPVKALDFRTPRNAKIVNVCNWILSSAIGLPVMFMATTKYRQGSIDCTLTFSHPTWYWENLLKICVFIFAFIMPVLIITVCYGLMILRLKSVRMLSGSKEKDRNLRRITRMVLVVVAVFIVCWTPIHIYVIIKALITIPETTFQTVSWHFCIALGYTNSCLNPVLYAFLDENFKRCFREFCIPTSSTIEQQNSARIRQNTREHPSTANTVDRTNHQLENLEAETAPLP

In the case of “N-Ac-Tyr-Pro-Phe-Phe-NHCH3 (Ac-YPFF-NHMe; SMILES CNC(=O)[C@H](Cc1ccccc1)NC(=O)[C@H](Cc1ccccc1)NC(=O)[C@@H]1CCCN1C(=O)[C@H](Cc1ccc(O)cc1)NC(C)=O)”, the recurrence (lower back (lumbar) pain; 0/8% (w/v) in WEP442, topical) is reported as “did not return”, the “time to pain relief” value (lower back (lumbar) pain; 0/8% (w/v) in WEP442, topical) is reported as no more than 5 min and the pain relief (lower back (lumbar) pain; (w/v) in WEP442, topical) is reported as “complete resolution of all pain in the lower back”. For the same substance, the “duration of pain relief” value [1] was “about 7 hours”, the pain relief [1] was “completely relieved” and the “time to pain relief” value [1] was 3 to 4 min. The “duration of pain relief” value [2] was “about 17 hours”, the pain relief [2] was “completely relieved all pain” and the “time to pain relief” value [2] was 5 to 7 min. The “duration of pain relief” value [3] was “about 4 hours”, the pain relief [3] was “Complete relief of pain” and the “time to pain relief” value [3] was no more than 2 min. The pain relief (post-sunburn pain; 0.8% (w/v) in WEP442, several applications over the next 24 hours) was “complete relief of pain”, the duration of relief (post-sunburn pain; 0.8% (w/v) in WEP442, topical) was 4 h and the pain relief (post-sunburn pain; 0.8% (w/v) in WEP442, topical) was “almost immediate relief of the painful discomfort”.

For “N-Ac-Tyr-Pro-Phe-Phe-NHNH2 (Ac-YPFF-NHNH2; SMILES CC(=O)N[C@@H](Cc1ccc(O)cc1)C(=O)N1CCC[C@H]1C(=O)N[C@@H](Cc1ccccc1)C(=O)N[C@@H](Cc1ccccc1)C(=O)NN)”, the pain relief [4] was “Almost complete relief of pain”, the “time to pain relief” value [4] was no more than 10 min and the pain relief (sinus headaches) was “headache completely subsided”. For the same substance, the “time to pain relief” value (sinus headaches) was no more than 10 min, the pain relief (hangover headache) was “the headache ceased” and the “time to pain relief” value (hangover headache) was 1 to 2 min. The pain relief (migraine) was “complete relief of pain”, the “blister at burned site” value (thermal burn of finger) was “did not developed a blister” and the pain relief (thermal burn of finger) was “completely relieved the pain almost instantly”.

In the case of “N-Ac-Tyr-Pro-Phe-Phe-OEt (Ac-YPFF-OEt; SMILES CCOC(=O)[C@H](Cc1ccccc1)NC(=O)[C@H](Cc1ccccc1)NC(=O)[C@@H]1CCCN1C(=O)[C@H](Cc1ccc(O)cc1)NC(C)=O)”, the “efficacy by clinical evaluation” value [5] is reported as 0.

For Tyr-Pro-Phe-Phe-NH2 (YPFF-NH2), the “affinity for mu receptors” value (mu receptors) is listed as “very high affinity”, the “effect on pain caused by needling or pinching of injected sites” value [6] is listed as “did not prevent pain” and the “spontaneous discharge of the medullary neurons” value [7] is listed as “significantly inhibited”. The “duration of relief of pain and paresthesia” value [8, 13] was 1 to 2 days, the “time to relief of symptoms” value [8, 13] was 8 h and the relief of symptoms ([8]; 0.5% (w/v) in WEP442, saturated gauze under plastic film over cervical vertebra 7) was “complete relief of symptoms”. The pain and paresthesia ([9]; 3 mg/ml sterile aqueous solution, subcutaneous, next day) was “diminished substantially”, the “time to return of pain and paresthesia” value ([9]; 3 mg/ml subcutaneous) was 2-3 weeks and the pain and paresthesia ([9]; 3 mg/ml subcutaneous, repeated after 24 hours, about 1 week later) was “negligible”. For the same substance, the analgesic effects [10] was “exhibited analgesic effects”, the duration of relief ([11]; 1% (w/v) in WEP442) was “about 7 hours” and the time to relief ([11]; 1% (w/v) in WEP442) was 5 to 10 s. The relief of soreness ([11]; 1% (w/v) in WEP442, applied to the sore gum area) was “all soreness was gone” and the “effect on edema in rat paw assay” value (adjuvant arthritis) was “did not have any effect that significantly differed from the effect of the control group”.

For “Tyr-Pro-Trp-Phe-NH2 [reference compound]”, the “affinity for mu receptors” value (mu receptors) is given as “very high affinity”, the “spontaneous discharge of the medullary neurons” value [7] is given as “significantly inhibited” and the “desensitization of the motor response” value [12] is given as “did not induce rapid desensitization of the motor response”.
